Assay results: US20220117938A1, “COMBINATON THERAPY WITH A DON PRODRUG AND AN IMMUNE CHECKPOINT INHIBITOR” (DRACEN PHARMACEUTICALS, INC., priority 2019, published 2022)

System: MC38 tumors
Assay: Anti-tumor efficacy of Compound 1 and Compound 3 by IV and SC routes in the MC38 model (Example 9)
Assay type: in vivo, mice
Protocol: Female C57BL/6 mice were inoculated subcutaneously in the right flank with MC38 cells for tumor development. Six days after tumor inoculation, mice with tumor sizes ranging from 52-97 mm^3 (average tumor size 71 mm^3) were selected and assigned into 10 groups using stratified randomization with 8 mice per group based upon their tumor volumes. The treatments were started from the day of randomization (defined as D0), Group 1 was treated with Vehicle control, SC qd×5 days on (Mon-Fri)×4 cycles; Group 2 was treated with Compound 1, 1.4 mpk SC, qd×5 days on (Mon-Fri)×4 cycles; Group 3 was treated with Compound 1, 7 mpk IV, biw (Mon, Thu)×4 cycles; Group 4 was treated with Compound 1, 14 mpk IV, biw (Mon, Thu)×4 cycles; Group 5 was treated with Compound 1, 14 mpk IV, qw (Mon)×4 cycles; Group 6 was treated with Compound 1, 21 mpk IV, qw (Mon)×4 cycles; Group 7 was treated with Compound 3, 1 mpk SC, qd 5 days on (Mon-Fri)×4 cycles; Group 8 was treated with Compound 3, 3 mpk SC, qd 5 days on (Mon-Fri)×4 cycles; Group 9 was treated with Compound 3, 9 mpk SC, qd 5 days on (Mon-Fri)×4 cycles; and Group 10 was treated with Compound 3, 7 mpk IV, tiw (Mon, Wed, Fri)×4 cycles. The tumor sizes were measured three times per week during the treatment. Survival was monitored with tumor volume exceeding 2000 mm^3 as endpoint. The entire study was terminated on D44 after start of the treatment. All treatments were well-tolerated without any adverse effects or significant body weight loss.

[1] = Group 2, 1.4 mpk SC qd Mon-Fri x4 cycles
[2] = Group 2, 1.4 mpk SC qd Mon-Fri x4 cycles, day 11
[3] = Group 3, 7 mpk IV biw x4 cycles
[4] = Group 3, 7 mpk IV biw x4 cycles, day 11
[5] = Group 4, 14 mpk IV biw x4 cycles
[6] = Group 4, 14 mpk IV biw x4 cycles, day 11
[7] = Group 5, 14 mpk IV qw x4 cycles
[8] = Group 5, 14 mpk IV qw x4 cycles, day 11
[9] = Group 6, 21 mpk IV qw x4 cycles
[10] = Group 6, 21 mpk IV qw x4 cycles, day 11

With CC(=O)N[C@@H](Cc1c[nH]c2ccccc12)C(=O)N[C@@H](CCC(=O)C=[N+]=[N-])C(=O)OC(C)C [Compound 1, Isopropyl (S)-2-((S)-2-acetamido-3-(1H-indol-3-yl)propanamido)-6-diazo-5-oxohexanoate] the ILS [1] was 170.0%, the MST [1] was 40.5 days and the “RTV at day 11” value [1] was 0.63 ± 0.11. For the same compound, the “Tumor Size at day 11” value [1] was 43 ± 6 mm^3, the Tumor volume (Group 2, 1.4 mpk SC qd Mon-Fri x4 cycles, day 0) was 71 ± 5 mm^3 and the Tumor volume (Group 2, 1.4 mpk SC qd Mon-Fri x4 cycles, day 2) was 64 ± 5 mm^3. The Tumor volume (Group 2, 1.4 mpk SC qd Mon-Fri x4 cycles, day 4) was 68 ± 10 mm^3, the Tumor volume (Group 2, 1.4 mpk SC qd Mon-Fri x4 cycles, day 7) was 61 ± 5 mm^3 and the Tumor volume (Group 2, 1.4 mpk SC qd Mon-Fri x4 cycles, day 9) was 39 ± 3 mm^3. The T/C [2] was 3.86%, the TGI [2] was 102.69% and the Tumor volume [2] was 43 ± 6 mm^3. The Tumor volume (Group 2, 1.4 mpk SC qd Mon-Fri x4 cycles, day 14) was 51 ± 9 mm^3, the Tumor volume (Group 2, 1.4 mpk SC qd Mon-Fri x4 cycles, day 16) was 50 ± 7 mm^3 and the Tumor volume (Group 2, 1.4 mpk SC qd Mon-Fri x4 cycles, day 18) was 52 ± 9 mm^3. It also gave a Tumor volume (Group 2, 1.4 mpk SC qd Mon-Fri x4 cycles, day 21) of 44 ± 7 mm^3, a Tumor volume (Group 2, 1.4 mpk SC qd Mon-Fri x4 cycles, day 23) of 41 ± 9 mm^3 and a Tumor volume (Group 2, 1.4 mpk SC qd Mon-Fri x4 cycles, day 25) of 42 ± 11 mm^3. The Tumor volume (Group 2, 1.4 mpk SC qd Mon-Fri x4 cycles, day 28) was 55 ± 14 mm^3, the Tumor volume (Group 2, 1.4 mpk SC qd Mon-Fri x4 cycles, day 30) was 140 ± 50 mm^3 and the Tumor volume (Group 2, 1.4 mpk SC qd Mon-Fri x4 cycles, day 32) was 303 ± 119 mm^3. It also gave a Tumor volume (Group 2, 1.4 mpk SC qd Mon-Fri x4 cycles, day 35) of 509 ± 166 mm^3, a Tumor volume (Group 2, 1.4 mpk SC qd Mon-Fri x4 cycles, day 37) of 896 ± 217 mm^3 and an ILS [3] of 123.3%. The MST [3] was 33.5 days, the “RTV at day 11” value [3] was 1.44 ± 0.20 and the “Tumor Size at day 11” value [3] was 99 ± 11 mm^3. It also gave a Tumor volume (Group 3, 7 mpk IV biw x4 cycles, day 0) of 71 ± 4 mm^3, a Tumor volume (Group 3, 7 mpk IV biw x4 cycles, day 2) of 61 ± 9 mm^3 and a Tumor volume (Group 3, 7 mpk IV biw x4 cycles, day 4) of 64 ± 7 mm^3. The Tumor volume (Group 3, 7 mpk IV biw x4 cycles, day 7) was 98 ± 8 mm^3, the Tumor volume (Group 3, 7 mpk IV biw x4 cycles, day 9) was 79 ± 7 mm^3 and the T/C [4] was 8.87%. It also gave a TGI [4] of 97.42%, a Tumor volume [4] of 99 ± 11 mm^3 and a Tumor volume (Group 3, 7 mpk IV biw x4 cycles, day 14) of 140 ± 16 mm^3. For the same compound, the Tumor volume (Group 3, 7 mpk IV biw x4 cycles, day 16) was 134 ± 10 mm^3, the Tumor volume (Group 3, 7 mpk IV biw x4 cycles, day 18) was 133 ± 15 mm^3 and the Tumor volume (Group 3, 7 mpk IV biw x4 cycles, day 21) was 236 ± 36 mm^3. It also gave a Tumor volume (Group 3, 7 mpk IV biw x4 cycles, day 23) of 317 ± 59 mm^3, a Tumor volume (Group 3, 7 mpk IV biw x4 cycles, day 25) of 337 ± 56 mm^3 and a Tumor volume (Group 3, 7 mpk IV biw x4 cycles, day 28) of 602 ± 144 mm^3. It also gave a Tumor volume (Group 3, 7 mpk IV biw x4 cycles, day 30) of 1181 ± 278 mm^3, an ILS [5] of 133.3% and an MST [5] of 35 days. For the same compound, the “RTV at day 11” value [5] was 1.06 ± 0.22, the “Tumor Size at day 11” value [5] was 69 ± 11 mm^3 and the Tumor volume (Group 4, 14 mpk IV biw x4 cycles, day 0) was 72 ± 6 mm^3. For the same compound, the Tumor volume (Group 4, 14 mpk IV biw x4 cycles, day 2) was 80 ± 12 mm^3, the Tumor volume (Group 4, 14 mpk IV biw x4 cycles, day 4) was 70 ± 8 mm^3 and the Tumor volume (Group 4, 14 mpk IV biw x4 cycles, day 7) was 86 ± 13 mm^3. The Tumor volume (Group 4, 14 mpk IV biw x4 cycles, day 9) was 70 ± 11 mm^3, the T/C [6] was 6.51% and the TGI [6] was 100.28%. For the same compound, the Tumor volume [6] was 69 ± 11 mm^3, the Tumor volume (Group 4, 14 mpk IV biw x4 cycles, day 14) was 95 ± 14 mm^3 and the Tumor volume (Group 4, 14 mpk IV biw x4 cycles, day 16) was 107 ± 25 mm^3. The Tumor volume (Group 4, 14 mpk IV biw x4 cycles, day 18) was 96 ± 22 mm^3, the Tumor volume (Group 4, 14 mpk IV biw x4 cycles, day 21) was 144 ± 45 mm^3 and the Tumor volume (Group 4, 14 mpk IV biw x4 cycles, day 23) was 163 ± 41 mm^3. The Tumor volume (Group 4, 14 mpk IV biw x4 cycles, day 25) was 167 ± 47 mm^3, the Tumor volume (Group 4, 14 mpk IV biw x4 cycles, day 28) was 261 ± 54 mm^3 and the Tumor volume (Group 4, 14 mpk IV biw x4 cycles, day 30) was 562 ± 124 mm^3. The Tumor volume (Group 4, 14 mpk IV biw x4 cycles, day 32) was 967 ± 171 mm^3, the Tumor volume (Group 4, 14 mpk IV biw x4 cycles, day 35) was 1884 ± 337 mm^3 and the ILS [7] was 86.7%. The MST [7] was 28 days, the “RTV at day 11” value [7] was 2.06 ± 0.40 and the “Tumor Size at day 11” value [7] was 134 ± 21 mm^3. The Tumor volume (Group 5, 14 mpk IV qw x4 cycles, day 0) was 70 ± 4 mm^3, the Tumor volume (Group 5, 14 mpk IV qw x4 cycles, day 2) was 67 ± 5 mm^3 and the Tumor volume (Group 5, 14 mpk IV qw x4 cycles, day 4) was 77 ± 12 mm^3. It also gave a Tumor volume (Group 5, 14 mpk IV qw x4 cycles, day 7) of 152 ± 20 mm^3, a Tumor volume (Group 5, 14 mpk IV qw x4 cycles, day 9) of 105 ± 12 mm^3 and a T/C [8] of 12.69%. It also gave a TGI [8] of 93.98%, a Tumor volume [8] of 134 ± 21 mm^3 and a Tumor volume (Group 5, 14 mpk IV qw x4 cycles, day 14) of 312 ± 56 mm^3. The ILS [9] was 60.0%, the MST [9] was 24 days and the “RTV at day 11” value [9] was 2.86 ± 0.39. The “Tumor Size at day 11” value [9] was 206 ± 33 mm^3, the Tumor volume (Group 6, 21 mpk IV qw x4 cycles, day 0) was 71 ± 4 mm^3 and the Tumor volume (Group 6, 21 mpk IV qw x4 cycles, day 2) was 79 ± 10 mm^3. The Tumor volume (Group 6, 21 mpk IV qw x4 cycles, day 4) was 80 ± 9 mm^3, the Tumor volume (Group 6, 21 mpk IV qw x4 cycles, day 7) was 182 ± 24 mm^3 and the Tumor volume (Group 6, 21 mpk IV qw x4 cycles, day 9) was 164 ± 21 mm^3. For the same compound, the T/C [10] was 17.57%, the TGI [10] was 87.26% and the Tumor volume [10] was 206 ± 33 mm^3. The Tumor volume (Group 6, 21 mpk IV qw x4 cycles, day 14) was 440 ± 87 mm^3, the Tumor volume (Group 6, 21 mpk IV qw x4 cycles, day 16) was 515 ± 84 mm^3 and the Tumor volume (Group 6, 21 mpk IV qw x4 cycles, day 18) was 740 ± 120 mm^3. For the same compound, the Tumor volume (Group 6, 21 mpk IV qw x4 cycles, day 21) was 1005 ± 174 mm^3 and the Tumor volume (Group 6, 21 mpk IV qw x4 cycles, day 23) was 1683 ± 302 mm^3.
